Reference: patent publication US20230416203A1, “POTENT AND SELECTIVE INHIBITORS OF THE CALCIUM-ACTIVATED POTASSIUM CHANNEL, KCA3.1, FOR USE AS PLATFORM THERAPEUTICS” (priority 2020, published 2023)
Where two headings read alike, the source gives them in different places.

Assays:
KCa3.1 channel = KCa3.1 channel (Homo sapiens, UniProt O15554); test: KCa3.1 patch-clamp (QPatch HTX automated and manual); type: cell-based
Method: The effect of the compounds on KCa3.1 channel was evaluated by patch-clamp using a QPatch HTX automated electrophysiology platform (Sophion, Denmark) and by manual patch-clamp (HEKA, Germany). For QPatch experiments, the giga-seal and whole-cell requirements for the automated electrophysiology were the following: minimum seal resistance=0.1 GQ; holding potential=−80 mV; holding pressure=−20 mbar; and positioning pressure=−70 mbar. For KCa3.1 experiment, the external solution was Na^+-Ringer's and contained (in mM): 160 NaCl; 10 HEPES; 4.5 KCl; 1 MgCl2; and 2 CaCl2 (pH=7.4, 310 mOsm). […] Following establishment of the whole-cell configuration, cells were held at −80 mV and KCa3.1 currents elicited by a voltage protocol that held at −80 mV for 20 ms, stepped to −120 mV for 20 ms, ramped from −120 to +40 mV over 200 ms, and then stepped back to −120 mV for 20 ms. This pulse protocol was applied every 10 s. Current slopes (in amperes per second) were measured using the Sophion QPatch software and exported to Microsoft Excel and GraphPad Prism 7 for analysis. […] Curve-fitting and IC50 determination were performed using GraphPad Prism software.

[1] = biological target: CaV1.2 channel over KCa3.1 (Homo sapiens, UniProt Q13936); test: in vitro; conditions: pH 7.4
Method: (§2) The external solution contained (in mM): 140 TEA-Cl; 2 MgCl2; 10 CaCl2; 10 HEPES; and 5 D-glucose (pH=7.4). The internal solution contained (in mM): 120 CsCl; 1 MgCl2; 10 HEPES; 10 EGTA; 0.3 Na2-GTP; and 4 Mg-ATP (pH=7.2). Following establishment of the whole-cell configuration, CaV1.2 current was recorded at holding membrane potential of −80 mV and then depolarized to +10 mV (test pulse was modified slightly due to lead IV test) for 0.3 s. This protocol was repeated at 20 s intervals to observe the effect of the test compounds on the peak of CaV1.2 current. Each cell was incubated with each test compound for 5 min, or until the current reached steady-state. The compounds were applied at multiple concentrations from low to high. Each cell acted as its own control. The decreases in the peak currents were used to determine the IC50 for CaV1.2 inhibition. Curve-fitting and IC50 calculations were performed using IGOR software.

CaV1.2 channel = CaV1.2 channel (Homo sapiens, UniProt Q13936); test: cell-based
Method: as §2

KCa2.2 = biological target: T1, KCa2.2 (Rattus norvegicus, UniProt P70604); test: Potassium channels patch-clamp (QPatch), KCa2.2; type: cell-based; conditions: HEK Rat KCa2.2; read-out: KCa2.2
T1 construct: expressed in transfected cells; host or cells: HEK
Method: (§1) The effects of Group 4 compounds on related potassium channels were evaluated by patch-clamp using a QPatch HTX automated electrophysiology platform (Sophion, Denmark). The giga-seal and whole-cell requirements for the automated electrophysiology were the following: minimum seal resistance=0.1 GO, holding potential=−80 mV, holding pressure=−20 mbar; and positioning pressure=−70 mbar.

KV1.1 = biological target: T2, KV1.1 (Mus musculus, UniProt P16388); test: Potassium channels patch-clamp (QPatch), KV1.1; type: cell-based; conditions: L929 Mouse KV1.1; read-out: KV1.1
T2 construct: expressed in transfected cells; host or cells: L929
Method: as §1

KV1.5 = biological target: T3, KV1.5 (Homo sapiens, UniProt P22460); test: Potassium channels patch-clamp (QPatch), KV1.5; type: cell-based; conditions: MEL Human KV1.5; read-out: KV1.5
T3 construct: expressed in transfected cells; host or cells: MEL
Method: as §1

KV1.4 = biological target: T4, KV1.4 (Homo sapiens, UniProt P22459); test: Potassium channels patch-clamp (QPatch), KV1.4; type: cell-based; conditions: LTK Human KV1.4; read-out: KV1.4
T4 construct: expressed in transfected cells; host or cells: LTK
Method: as §1

KV11.1 (hERG) = biological target: T5, KV11.1 (hERG) (Homo sapiens, UniProt Q12809); test: Potassium channels patch-clamp (QPatch), KV11.1 (hERG); type: cell-based; conditions: CHO Human KV11.1; read-out: KV11.1 (hERG)
T5 construct: host or cells: CHO
Method: as §1

KV4.2 = biological target: T6, KV4.2 (Rattus norvegicus, UniProt Q63881); test: Potassium channels patch-clamp (QPatch), KV4.2; type: cell-based; conditions: LTK Rat KV4.2; read-out: KV4.2
T6 construct: expressed in transfected cells; host or cells: LTK
T6 sequence (Q63881 1-630): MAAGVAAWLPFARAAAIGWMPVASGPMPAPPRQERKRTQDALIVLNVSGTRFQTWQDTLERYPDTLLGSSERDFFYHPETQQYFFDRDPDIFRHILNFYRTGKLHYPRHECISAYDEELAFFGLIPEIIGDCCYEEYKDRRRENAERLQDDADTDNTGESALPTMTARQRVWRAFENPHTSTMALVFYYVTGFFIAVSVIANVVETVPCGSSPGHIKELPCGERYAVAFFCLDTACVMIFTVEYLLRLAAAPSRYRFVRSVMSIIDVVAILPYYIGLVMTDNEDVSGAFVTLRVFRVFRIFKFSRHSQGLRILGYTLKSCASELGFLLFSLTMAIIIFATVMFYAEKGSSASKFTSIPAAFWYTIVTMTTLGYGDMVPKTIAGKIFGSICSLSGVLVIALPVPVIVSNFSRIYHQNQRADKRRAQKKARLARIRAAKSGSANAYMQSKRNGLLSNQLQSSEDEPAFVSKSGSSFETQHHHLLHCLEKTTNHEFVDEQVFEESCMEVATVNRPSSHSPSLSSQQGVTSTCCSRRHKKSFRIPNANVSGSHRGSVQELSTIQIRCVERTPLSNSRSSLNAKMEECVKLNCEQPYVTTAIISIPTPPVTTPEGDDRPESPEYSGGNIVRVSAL
Method: as §1

KV3.1 = biological target: T7, KV3.1 (Mus musculus, UniProt P15388); test: Potassium channels patch-clamp (QPatch), KV3.1; type: cell-based; conditions: L929 Mouse KV3.1; read-out: KV3.1
T7 construct: expressed in transfected cells; host or cells: L929
T7 sequence (P15388 1-511): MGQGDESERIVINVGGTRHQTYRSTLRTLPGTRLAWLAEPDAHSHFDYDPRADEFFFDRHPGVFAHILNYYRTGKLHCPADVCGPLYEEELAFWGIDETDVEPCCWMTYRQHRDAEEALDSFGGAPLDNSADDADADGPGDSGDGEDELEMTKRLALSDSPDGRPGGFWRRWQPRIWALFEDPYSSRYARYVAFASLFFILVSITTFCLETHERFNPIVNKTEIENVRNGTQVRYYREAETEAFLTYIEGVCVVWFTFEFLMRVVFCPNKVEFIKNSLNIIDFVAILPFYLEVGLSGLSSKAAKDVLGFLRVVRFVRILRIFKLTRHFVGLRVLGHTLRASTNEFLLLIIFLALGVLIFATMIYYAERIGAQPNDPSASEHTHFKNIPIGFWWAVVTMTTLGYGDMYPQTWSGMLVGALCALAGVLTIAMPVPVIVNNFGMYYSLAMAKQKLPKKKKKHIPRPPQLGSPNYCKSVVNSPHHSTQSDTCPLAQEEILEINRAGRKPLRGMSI
Method: as §1

KV1.3 = biological target: T8, KV1.3 (Mus musculus, UniProt P16390); test: Potassium channels patch-clamp (QPatch), KV1.3; type: cell-based; conditions: L929 Mouse KV1.3; read-out: KV1.3
T8 construct: expressed in transfected cells; host or cells: L929
Method: as §1

KV1.7 = biological target: T9, KV1.7 (Homo sapiens, UniProt Q96RP8); test: Potassium channels patch-clamp (QPatch), KV1.7; type: cell-based; conditions: CHL Human KV1.7; read-out: KV1.7
T9 construct: expressed in transfected cells; host or cells: CHL
Method: as §1

KCa1.1 = biological target: T10, KCa1.1 (Homo sapiens, UniProt Q12791); test: Potassium channels patch-clamp (QPatch), KCa1.1; type: cell-based; conditions: HEK Human KCa1.1; read-out: KCa1.1
T10 construct: expressed in transfected cells; host or cells: HEK
Method: as §1

KCa2.3 = biological target: T11, KCa2.3 (Homo sapiens, UniProt Q9UGI6); test: Potassium channels patch-clamp (QPatch), KCa2.3; type: cell-based; conditions: COS7 Human KCa2.3; read-out: KCa2.3
T11 construct: expressed in transfected cells; host or cells: COS7
Method: as §1

KV1.2 = biological target: T12, KV1.2 (Rattus norvegicus, UniProt P63142); test: Potassium channels patch-clamp (QPatch), KV1.2; type: cell-based; conditions: B82 Rat KV1.2; read-out: KV1.2
T12 construct: expressed in transfected cells; host or cells: B82
Method: as §1

[2] = block of KCa3.1, patch clamp (Table 2), read-out: IC50
[3] = IC50 (nM), block of KCa3.1, patch clamp (Table 2)

T3 sequence (P22460 whole entry): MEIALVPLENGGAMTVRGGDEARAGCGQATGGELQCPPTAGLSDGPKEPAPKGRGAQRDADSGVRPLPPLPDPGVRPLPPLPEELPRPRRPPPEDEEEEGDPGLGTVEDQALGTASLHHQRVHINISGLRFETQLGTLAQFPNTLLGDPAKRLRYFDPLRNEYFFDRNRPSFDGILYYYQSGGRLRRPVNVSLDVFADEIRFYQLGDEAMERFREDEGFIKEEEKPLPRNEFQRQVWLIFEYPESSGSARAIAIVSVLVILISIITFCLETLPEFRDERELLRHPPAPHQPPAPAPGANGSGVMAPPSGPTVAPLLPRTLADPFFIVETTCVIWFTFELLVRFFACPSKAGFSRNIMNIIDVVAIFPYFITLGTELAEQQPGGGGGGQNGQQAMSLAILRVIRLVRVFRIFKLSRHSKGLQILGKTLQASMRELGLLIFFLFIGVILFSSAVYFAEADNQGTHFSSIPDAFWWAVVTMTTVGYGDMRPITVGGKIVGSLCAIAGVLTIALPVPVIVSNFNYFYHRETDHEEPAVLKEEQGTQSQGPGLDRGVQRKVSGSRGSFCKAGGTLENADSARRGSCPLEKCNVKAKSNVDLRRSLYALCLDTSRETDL
T11 sequence (Q9UGI6 whole entry): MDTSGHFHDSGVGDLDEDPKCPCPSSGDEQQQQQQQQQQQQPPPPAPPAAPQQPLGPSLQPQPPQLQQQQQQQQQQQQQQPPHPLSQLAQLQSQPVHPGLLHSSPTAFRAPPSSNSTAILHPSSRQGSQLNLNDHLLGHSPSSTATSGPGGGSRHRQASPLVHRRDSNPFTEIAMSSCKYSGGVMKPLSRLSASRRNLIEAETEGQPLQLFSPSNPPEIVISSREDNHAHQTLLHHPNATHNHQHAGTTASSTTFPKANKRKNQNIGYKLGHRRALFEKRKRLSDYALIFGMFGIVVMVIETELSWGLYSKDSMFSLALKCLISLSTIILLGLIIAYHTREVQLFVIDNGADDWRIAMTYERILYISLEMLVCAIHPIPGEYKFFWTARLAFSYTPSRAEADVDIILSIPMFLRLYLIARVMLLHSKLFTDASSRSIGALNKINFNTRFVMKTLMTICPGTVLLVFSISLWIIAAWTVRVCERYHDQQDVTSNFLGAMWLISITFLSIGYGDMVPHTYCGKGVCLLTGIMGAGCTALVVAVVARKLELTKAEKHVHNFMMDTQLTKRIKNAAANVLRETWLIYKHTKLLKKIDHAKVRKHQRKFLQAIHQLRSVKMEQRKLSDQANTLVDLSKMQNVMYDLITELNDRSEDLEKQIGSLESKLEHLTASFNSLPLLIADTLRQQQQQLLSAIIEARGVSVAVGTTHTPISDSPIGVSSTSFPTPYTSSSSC
Sequence of CaV1.2 channel (Q13936 whole entry): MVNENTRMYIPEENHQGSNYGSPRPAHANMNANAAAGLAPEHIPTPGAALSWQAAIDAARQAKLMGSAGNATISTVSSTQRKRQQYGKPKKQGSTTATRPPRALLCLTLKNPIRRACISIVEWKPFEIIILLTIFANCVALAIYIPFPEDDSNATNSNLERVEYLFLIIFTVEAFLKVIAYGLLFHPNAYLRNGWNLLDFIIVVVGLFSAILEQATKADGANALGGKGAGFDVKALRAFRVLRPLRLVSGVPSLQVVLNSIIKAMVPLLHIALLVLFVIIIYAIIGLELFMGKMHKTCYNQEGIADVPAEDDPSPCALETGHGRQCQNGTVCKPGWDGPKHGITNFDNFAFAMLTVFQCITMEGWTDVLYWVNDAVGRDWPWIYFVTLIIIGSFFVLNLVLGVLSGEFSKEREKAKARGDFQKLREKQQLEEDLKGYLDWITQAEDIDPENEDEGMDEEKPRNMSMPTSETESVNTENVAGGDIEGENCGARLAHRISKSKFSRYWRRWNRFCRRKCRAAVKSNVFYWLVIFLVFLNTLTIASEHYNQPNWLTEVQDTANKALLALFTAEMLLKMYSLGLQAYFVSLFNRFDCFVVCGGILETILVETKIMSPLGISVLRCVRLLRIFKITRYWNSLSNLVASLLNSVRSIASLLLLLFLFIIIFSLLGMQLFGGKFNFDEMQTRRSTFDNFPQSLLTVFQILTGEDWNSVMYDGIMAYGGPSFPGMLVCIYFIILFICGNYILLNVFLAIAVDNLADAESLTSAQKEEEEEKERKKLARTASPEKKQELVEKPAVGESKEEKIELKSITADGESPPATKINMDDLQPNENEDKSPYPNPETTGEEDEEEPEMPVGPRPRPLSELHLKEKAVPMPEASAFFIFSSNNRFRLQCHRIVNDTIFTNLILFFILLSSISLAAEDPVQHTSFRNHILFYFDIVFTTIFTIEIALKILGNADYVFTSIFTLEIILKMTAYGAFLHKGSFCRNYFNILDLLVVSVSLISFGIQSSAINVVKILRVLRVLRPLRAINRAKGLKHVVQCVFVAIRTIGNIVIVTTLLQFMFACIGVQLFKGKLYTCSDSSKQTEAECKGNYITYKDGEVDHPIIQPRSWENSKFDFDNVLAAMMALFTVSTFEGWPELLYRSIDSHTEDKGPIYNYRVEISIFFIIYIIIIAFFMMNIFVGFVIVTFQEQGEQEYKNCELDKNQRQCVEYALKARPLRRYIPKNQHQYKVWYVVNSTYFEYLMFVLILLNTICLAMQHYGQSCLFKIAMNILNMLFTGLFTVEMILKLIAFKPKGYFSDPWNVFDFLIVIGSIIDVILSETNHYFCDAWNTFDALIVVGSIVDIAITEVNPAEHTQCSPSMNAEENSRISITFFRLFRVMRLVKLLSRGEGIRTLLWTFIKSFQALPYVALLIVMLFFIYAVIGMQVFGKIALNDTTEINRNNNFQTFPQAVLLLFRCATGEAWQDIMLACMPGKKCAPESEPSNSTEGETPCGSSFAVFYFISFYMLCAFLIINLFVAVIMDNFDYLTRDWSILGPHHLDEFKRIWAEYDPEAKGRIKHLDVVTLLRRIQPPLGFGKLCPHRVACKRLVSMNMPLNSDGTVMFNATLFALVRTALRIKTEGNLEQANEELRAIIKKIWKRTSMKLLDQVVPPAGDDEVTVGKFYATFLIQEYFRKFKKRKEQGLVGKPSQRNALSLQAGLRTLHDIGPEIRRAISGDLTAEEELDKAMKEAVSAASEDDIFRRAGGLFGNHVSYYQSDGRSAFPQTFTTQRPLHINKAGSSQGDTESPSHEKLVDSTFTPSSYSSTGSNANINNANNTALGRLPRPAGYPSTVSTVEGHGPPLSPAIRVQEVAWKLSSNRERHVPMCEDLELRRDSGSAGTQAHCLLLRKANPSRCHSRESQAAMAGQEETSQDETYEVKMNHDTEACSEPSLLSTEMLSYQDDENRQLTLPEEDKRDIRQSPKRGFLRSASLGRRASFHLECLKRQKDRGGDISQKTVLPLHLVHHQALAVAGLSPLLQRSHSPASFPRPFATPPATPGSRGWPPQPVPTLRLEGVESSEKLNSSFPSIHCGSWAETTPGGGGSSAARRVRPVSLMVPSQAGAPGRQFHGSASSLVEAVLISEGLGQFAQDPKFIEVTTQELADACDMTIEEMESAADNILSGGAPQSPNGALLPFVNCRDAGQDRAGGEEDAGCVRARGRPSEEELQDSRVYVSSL
Sequence of CaV1.2 channel over KCa3.1 (Q13936 whole entry): as above
T5 sequence (Q12809 whole entry): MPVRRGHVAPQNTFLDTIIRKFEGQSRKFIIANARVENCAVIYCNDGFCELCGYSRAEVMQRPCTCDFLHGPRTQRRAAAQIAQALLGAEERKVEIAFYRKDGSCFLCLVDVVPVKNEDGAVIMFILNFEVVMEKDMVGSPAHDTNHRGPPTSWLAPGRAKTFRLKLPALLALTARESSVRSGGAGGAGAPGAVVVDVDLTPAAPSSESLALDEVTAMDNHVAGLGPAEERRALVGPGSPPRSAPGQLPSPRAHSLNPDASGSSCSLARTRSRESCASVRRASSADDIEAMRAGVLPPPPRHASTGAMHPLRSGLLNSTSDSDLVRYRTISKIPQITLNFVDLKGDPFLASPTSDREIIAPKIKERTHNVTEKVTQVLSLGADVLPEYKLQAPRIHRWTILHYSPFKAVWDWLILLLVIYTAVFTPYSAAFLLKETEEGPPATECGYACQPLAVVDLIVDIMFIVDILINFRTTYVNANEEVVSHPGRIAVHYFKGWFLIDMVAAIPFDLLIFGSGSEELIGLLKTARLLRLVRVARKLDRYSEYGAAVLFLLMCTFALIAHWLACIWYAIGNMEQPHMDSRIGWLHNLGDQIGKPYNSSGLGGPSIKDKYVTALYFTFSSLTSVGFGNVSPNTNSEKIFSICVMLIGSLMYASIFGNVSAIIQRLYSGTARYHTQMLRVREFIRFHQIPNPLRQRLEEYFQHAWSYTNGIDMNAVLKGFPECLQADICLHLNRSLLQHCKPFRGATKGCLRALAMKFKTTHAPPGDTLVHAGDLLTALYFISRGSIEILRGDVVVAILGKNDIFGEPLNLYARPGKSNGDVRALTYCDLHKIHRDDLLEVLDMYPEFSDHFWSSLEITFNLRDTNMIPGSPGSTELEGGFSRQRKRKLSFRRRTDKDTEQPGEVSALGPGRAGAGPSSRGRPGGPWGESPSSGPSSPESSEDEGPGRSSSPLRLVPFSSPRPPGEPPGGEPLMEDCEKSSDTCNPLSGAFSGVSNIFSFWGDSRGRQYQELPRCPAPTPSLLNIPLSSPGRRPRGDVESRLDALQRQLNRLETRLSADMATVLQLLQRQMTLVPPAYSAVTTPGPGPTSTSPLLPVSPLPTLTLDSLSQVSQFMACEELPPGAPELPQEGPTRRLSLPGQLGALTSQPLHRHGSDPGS

IC50 (KCa3.1 channel; [2]) [nM]	SMILES	IC50 (KCa3.1 channel; [3]) [nM]	IC50 (KCa3.1 channel; KCa3.1 IC50 (nM), Table 3) [nM]	selectivity ratio [1]	IC50 (CaV1.2 channel) [µM]	IC50 (KCa3.1 channel; KCa3.1, Table 5) [nM]	IC50 (KV1.5) [µM]	IC50 (KV11.1 (hERG)) [µM]	IC50 (KV1.3) [µM]	IC50 (KCa2.3) [µM]	other results
> 10000	COC(=O)C1=C(C)NC(C)=C(C(=O)OCCN2CCN(C(c3ccccc3)c3ccccc3)CC2)C1c1cccc([N+](=O)[O-])c1 (stereo not shown) [Compound 03]										
	COC(=O)C1=C(C)NC(C)=C(C(C)=O)C1c1cccc([N+](=O)[O-])c1 (stereo not shown) [Compound 79]	142 ± 7.6	142	14	2						
2300	CCOC(=O)C1=C(C)NC(C)=C(C(=O)OC)C1c1cccc([N+](=O)[O-])c1 (stereo not shown) [Compound 08]										IC50 (KCa3.1 channel; Table 3, read-out: KCa3.1 IC50): 2300 nM
	COC(=O)C1=C(C)NC(C)=C(C(C)=O)C1c1ccc(F)c(C(F)(F)F)c1 (stereo not shown) [Compound 57]	16.8 ± 0.9	16.8	89	1.5						
4000	COC(=O)C1=C(C)NC(C)=C(C(=O)OC)C1c1ccccc1[N+](=O)[O-] [Compound 07]										IC50 (KCa3.1 channel; Table 3, read-out: KCa3.1 IC50): 4000 nM
> 10000	COCCOC(=O)C1=C(C)NC(C)=C(C(=O)OC(C)C)C1c1cccc([N+](=O)[O-])c1 (stereo not shown) [Compound 04]										
	COC(=O)C1=CNC=C(C(=O)OC)C1c1cccc(C(F)(F)F)c1 [Compound 108, Dimethyl 4-(3-(trifluoromethyl)phenyl)-1,4-dihydropyridine-3,5-dicarboxylate]	18.5 ± 1.1	18.5	1190	22	18.5 ± 1.1	> 10	> 10	> 10	7	IC50 (KCa2.2): > 10 µM; IC50 (KV1.1): > 10 µM; IC50 (KV1.4): > 10 µM; IC50 (KV4.2): > 10 µM; IC50 (KV3.1): > 10 µM; IC50 (KV1.7): > 10 µM; IC50 (KCa1.1): > 10 µM; IC50 (KV1.2): > 10 µM
	COC(=O)C1=C(C)NC(C)=C(C(=O)OC)C1c1ccc(Cl)c(C(F)(F)F)c1 [Compound 102]	7 ± 0.2	7	342	2.4						
	COCCOC(=O)C1=C(C)NC(C)=C(C(=O)OCCOC)C1c1cccc([N+](=O)[O-])c1 [Compound 06]	9880									
	COC(=O)C1=CNC=C(C(=O)OC)C1c1cc(F)cc(C(F)(F)F)c1 [Compound 109]	4.5 ± 0.2	4.5	2360	10.6	4.5 ± 0.2	> 10	> 10	> 10	> 10	
	COC(=O)C1=CNC=C(C(=O)OC)C1c1ccc(Cl)c(C(F)(F)F)c1 [Compound 113, Dimethyl 4-(4-chloro-3-(trifluoromethyl)phenyl)-1,4-dihydropyridine-3,5-dicarboxylate]	5.7 ± 0.3	5.7	649	3.7	5.7 ± 0.3	> 10	> 10	> 10	> 10	
	COC(=O)C1=CNC=C(C(=O)OC)C1c1cc(F)c(F)c(C(F)(F)F)c1 [Compound 110, Dimethyl 4-(3,4-difluoro-5-(trifluoromethyl)phenyl)-1,4-dihydropyridine-3,5-dicarboxylate]	6.9 ± 1.3	6.9	1320	9.1	6.9 ± 1.3	> 10	> 10	> 10	> 10	
	COC(=O)C1=CNC(C)=C(C(=O)OC)C1c1ccc(F)c(C(F)(F)F)c1 (stereo not shown) [Compound 104, Dimethyl 4-(4-fluoro-3-(trifluoromethyl)phenyl)-2-methyl-1,4-dihydropyridine-3,5-dicarboxylate]		7.6	644	4.9	7.6 ± 1.7	> 10	> 10	> 10	8	IC50 (KCa2.2): > 10 µM; IC50 (KV1.1): > 10 µM; IC50 (KV1.4): > 10 µM; IC50 (KV4.2): > 10 µM; IC50 (KV3.1): > 10 µM; IC50 (KV1.7): > 10 µM; IC50 (KCa1.1): > 10 µM; IC50 (KV1.2): > 10 µM
